Assay results from patent US11540999B2, “Deodorant compositions” (The Procter & Gamble Company, priority 2017, dated 2023).
Where a name gives a salt, the structure may show the parent alone.

System: two key underarm bacteria strains
Test: Raw material microbial inhibition, verbal summary of Table 2
Assay type: cell-based
Settings: both strains of Table 2, in words
Procedure: The data in Table 2 above was generated with the following test method.
3. Microbial Strains • Staphylococcus epidermidis (clinical isolate) • Corynebacterium mucofaciens (clinical isolate)
In row A of a 96 deep well plate pipette 180 ul of sterile BHI with 1% Tween 80 as a negative growth control. All other wells receive 180 ul of inoculum. From the master plate introduce 20 ul to the corresponding row in the test plate using an 8-channel pipette. Loaded plates are placed on a plate shaker in the 37° C. incubator and incubated overnight. The next day read the O.D. 600 on a plate reader. The MIC is the last well from the right that has no bacterial growth.

| Compound | performance against the bacteria as raw materials |
| --- | --- |
| O=C([O-])[O-].[Ca+2] [Ca Carbonate, calcium carbonate] | performing moderately well |
| CC(C)=CCCC(C)=CC=O [Citral] | performing well |
| COC(=O)CCC(=O)OC [Dimethyl Succinate] | performing well |
| C=CCc1ccc(O)c(OC)c1 [Eugenol] | performing well |
| C=CCCCCCCCCC(=O)N[C@@H](Cc1ccccc1)C(=O)O [Sepiwhite] | performing well |
| CCOC(=O)CC(O)(CC(=O)OCC)C(=O)OCC [Triethyl citrate] | performing well |
| Cc1cc(CC(C)CC(C)(C)C)n(O)c(=O)c1.NCCO (stereo not shown) [piroctone olamine] | perform particularly well |
